Measured values taken from US20220257619A1, “LONG-ACTING FORMULATIONS OF TENOFOVIR ALAFENAMIDE” (Gilead Sciences, Inc., priority 2019, published 2022).
In brackets after ≈: the same amount, converted by molar mass. Like-named read-outs stand apart in the source and are kept apart here. Marks after values point to notes of the source that are not given here.

Tests used:
[1] = physchem; settings: 37 °C, organic solvent or mixture, thermodynamic from solid
Protocol: Briefly, samples were prepared by mixing active agent and solvent and were tested at various time points after mixing and after storage at various temperatures. The samples were tested for the solubility of the active agent (mg/mL), calculated as the free base equivalent. Each data point is the average of two replicates unless otherwise specified. The data points with an asterisk (*) were taken at 4 days, as opposed to 5 days.

[2] = solvent BB, 37° C., asterisk: taken at 4 days, as opposed to 5 days

| Molecule | solubility at 1 day ([1]; ACN) [mg/mL] | solubility at 5 days ([1]; ACN) [mg/mL] | solubility at 1 day ([1]; DCM) [mg/mL] | solubility at 5 days ([1]; DCM) [mg/mL] | solubility at 1 day ([1]; DMSO) [mg/mL] | solubility at 5 days ([1]; DMSO) [mg/mL] | solubility at 1 day ([1]; NMP) [mg/mL] | solubility at 5 days ([1]; NMP) [mg/mL] | solubility at 1 day ([1]; PC) [mg/mL] | solubility at 5 days ([1]; PC) [mg/mL] | Solubility (mg/mL, Calculated as Free Base Equivalent) [2] | Solubility (mg/mL, Calculated as Free Base Equivalent) (solvent ACN, 37° C./5 days) [mg/mL] | Solubility (mg/mL, Calculated as Free Base Equivalent) (solvent DCM, 37° C./5 days) [mg/mL] | Solubility (mg/mL, Calculated as Free Base Equivalent) (solvent DMSO, 37° C./5 days) [mg/mL] | Solubility (mg/mL, Calculated as Free Base Equivalent) (solvent NMP, 37° C./5 days) [mg/mL] | Solubility (mg/mL, Calculated as Free Base Equivalent) (solvent PC, 37° C./5 days) [mg/mL] |
| --- | --- | --- | --- | --- | --- | --- | --- | --- | --- | --- | --- | --- | --- | --- | --- | --- |
| CC(C)OC(=O)[C@H](C)N[P@](=O)(CO[C@H](C)Cn1cnc2c(N)ncnc21)Oc1ccccc1 [TAF Free base, (S)-isopropyl-2-(((S)-((((R)-1-(6-amino-9H-purin-9-yl)propan-2-yl)oxy)methyl)(phenoxy)phosphoryl)amino)propanoate] | 15 (≈ 31.5 mM) | 13 (≈ 27.3 mM) | 146 (≈ 306 mM) | 384 (≈ 806 mM) | 96 (≈ 201 mM) | 182 (≈ 382 mM) | 96 (≈ 201 mM) | 161 (≈ 338 mM) | 15 (≈ 31.5 mM) | 26 (≈ 54.6 mM) | 5.0 mg/mL | – | – | – | – | – |
| tenofovir alafenamide hemifumarate [TAF Hemifumarate] | – | – | – | – | – | – | – | – | – | – | 3.9* mg/mL | 11 | 97 | 132 | 160 | 22 |
